How the values were obtained:
[1] = molecular target: T1, cIAP1 (BIR3) (Homo sapiens, UniProt Q13490); experiment: TR-FRET IAP/Smac peptide interaction assay, cIAP1; conditions: FITC-Smac probe, read-out: Binding affinity IC50 cIAP1
T1 construct: human cIAP1 (BIR3, Leu250-Gly350); made in house; host or cells: E. coli
Procedure: (§1) The TR-FRET assay was carried out using 384-well white flat-bottom plates (Greiner Bio-One) and the signal was measured using an EnVision Multilabel Plate Reader (PerkinElmer, Waltham, MA, USA). The solution in each well was excited with a laser (λ = 337 nm) reflected by a dichroic mirror (D400/D505 (Perkin Elmer) and fluorescence from terbium (Tb) and BODIPY or FITC was detected through two emission filters (CFP 486 (Perkin Elmer) for Tb and Emission 515 (Perkin Elmer) for BODIPY and FITC). The assay buffer used in this study was composed of 50 mM HEPES (pH 7.2–7.5), 10 mM MgCl2, 1 mM EGTA, 0.1 mM DTT and 0.01% (v/v) Brij^(R) 35. All assays were carried out at room temperature in triplicate or quadruplicate formats.
(§2) The half maximal inhibitory concentration (IC50) of test compounds was calculated by fitting the data with the logistic equation using GraphPad Prism 5 (GraphPad Software, Inc., La Jolla, CA, USA) or XLfit (IDBS, Guildford, UK).
(§3) His-IAP proteins (XIAP, cIAP1 or cIAP2), FITC-Smac, Tb-SA and the biotinylated anti-His antibody (Life Technologies) were mixed in the assay buffer and incubated for over 1 h at room temperature before addition to the assay plate. […] After 1 h incubation at room temperature, the TR-FRET signal was measured using the EnVision Multilabel Plate Reader. […]

[2] = molecular target: T2, XIAP (BIR3) (Homo sapiens, UniProt P98170); experiment: TR-FRET IAP/Smac peptide interaction assay, XIAP; conditions: FITC-Smac probe, read-out: Binding affinity IC50 XIAP
T2 construct: human XIAP (BIR3, Asn252-Thr356, 895-XB-050); purchased R&D Systems 895-XB-050
Procedure: as §1, §2, §3

[3] = system: K562 cells; experiment: WST cell growth inhibition, K562; assay type: cell-based, Human; conditions: 48 h, WST assay; for IC50: Homo sapiens, means ± SD (n = 3)
Procedure: (§4) Human CML (K562 and KU812 cells), acute T-lymphoblast leukemia (MOLT-4 cell), and T cell leukemia (Jurkat cell) were cultured in Roswell Park Memorial Institute-1640 medium (Sigma-Aldrich, St. Louis, MO, USA) containing 10% fetal bovine serum (Thermo Fisher Scientific, Waltham, MA, USA) and 50 μg/ml kanamycin (Sigma-Aldrich). KU812 cells were obtained from Japanese Collection of Research Bioresources (JCRB, Osaka, Japan) Cell Bank (JCRB0104)[58].
(§5) Cell viability was determined using water-soluble tetrazolium WST-8 (4-[3-(2-methoxy-4-nitrophenyl)-2-(4-nitrophenyl)-2H-5-tetrazolio]-1,3-benzene disulfonate) for the spectrophotometric assay and conducted according to the manufacturer’s instructions (Dojindo, Tokyo, Japan). Cells were seeded at a concentration of 5 × 10^3 cells per well in a 96-well culture plate, and treated with the indicated compounds for 48 h. The WST-8 reagent was added, and the cells were incubated for 0.5 h at 37 °C in a humidified atmosphere of 5% CO2. The absorbance at 450 nm of the medium was measured using the EnVision Multilabel Plate Reader.

[4] = system: KU812 cells; experiment: WST cell growth inhibition, KU812; assay type: cell-based; conditions: Homo sapiens, 48 h, WST assay, means ± SD (n = 3)
Procedure: as §4, §5

[5] = molecular target: T3, BCR-ABL protein (Homo sapiens, UniProt P00519+P11274); experiment: Protein knockdown by western blot in K562 cells; assay type: cell-based; conditions: 6 h
T3 construct: examined for their activity to degrade BCR-ABL in K562 cells for 6 h; BCR (fusion partner, P11274, N-terminal part); endogenous in cells; host or cells: K562
Procedure: Cells were collected and lysed in a lysis buffer (0.5% Triton X-100, 0.01 M Tris-HCl (pH 7.5), 0.15 M NaCl, Complete Mini protease inhibitor cocktail (Roche Applied Science, Indianapolis, IL, USA) and PhosStop phosphatase inhibitor cocktail (Roche Applied Science)). Protein concentrations were measured by the BCA method (Thermo Fisher Scientific) and an equal amount of protein lysate was separated by SDS-PAGE, transferred to polyvinylidene difluoride membranes (Merck Millipore) and analyzed by western blot using an appropriate antibody. The immunoreactive proteins were visualized using Clarity Western ECL substrate (Bio-Rad, Hercules, CA, USA) and their light emission was quantified with a LAS-3000 lumino-image analyzer (Fuji, Tokyo, Japan).

T3 sequence (P11274+P00519 fused): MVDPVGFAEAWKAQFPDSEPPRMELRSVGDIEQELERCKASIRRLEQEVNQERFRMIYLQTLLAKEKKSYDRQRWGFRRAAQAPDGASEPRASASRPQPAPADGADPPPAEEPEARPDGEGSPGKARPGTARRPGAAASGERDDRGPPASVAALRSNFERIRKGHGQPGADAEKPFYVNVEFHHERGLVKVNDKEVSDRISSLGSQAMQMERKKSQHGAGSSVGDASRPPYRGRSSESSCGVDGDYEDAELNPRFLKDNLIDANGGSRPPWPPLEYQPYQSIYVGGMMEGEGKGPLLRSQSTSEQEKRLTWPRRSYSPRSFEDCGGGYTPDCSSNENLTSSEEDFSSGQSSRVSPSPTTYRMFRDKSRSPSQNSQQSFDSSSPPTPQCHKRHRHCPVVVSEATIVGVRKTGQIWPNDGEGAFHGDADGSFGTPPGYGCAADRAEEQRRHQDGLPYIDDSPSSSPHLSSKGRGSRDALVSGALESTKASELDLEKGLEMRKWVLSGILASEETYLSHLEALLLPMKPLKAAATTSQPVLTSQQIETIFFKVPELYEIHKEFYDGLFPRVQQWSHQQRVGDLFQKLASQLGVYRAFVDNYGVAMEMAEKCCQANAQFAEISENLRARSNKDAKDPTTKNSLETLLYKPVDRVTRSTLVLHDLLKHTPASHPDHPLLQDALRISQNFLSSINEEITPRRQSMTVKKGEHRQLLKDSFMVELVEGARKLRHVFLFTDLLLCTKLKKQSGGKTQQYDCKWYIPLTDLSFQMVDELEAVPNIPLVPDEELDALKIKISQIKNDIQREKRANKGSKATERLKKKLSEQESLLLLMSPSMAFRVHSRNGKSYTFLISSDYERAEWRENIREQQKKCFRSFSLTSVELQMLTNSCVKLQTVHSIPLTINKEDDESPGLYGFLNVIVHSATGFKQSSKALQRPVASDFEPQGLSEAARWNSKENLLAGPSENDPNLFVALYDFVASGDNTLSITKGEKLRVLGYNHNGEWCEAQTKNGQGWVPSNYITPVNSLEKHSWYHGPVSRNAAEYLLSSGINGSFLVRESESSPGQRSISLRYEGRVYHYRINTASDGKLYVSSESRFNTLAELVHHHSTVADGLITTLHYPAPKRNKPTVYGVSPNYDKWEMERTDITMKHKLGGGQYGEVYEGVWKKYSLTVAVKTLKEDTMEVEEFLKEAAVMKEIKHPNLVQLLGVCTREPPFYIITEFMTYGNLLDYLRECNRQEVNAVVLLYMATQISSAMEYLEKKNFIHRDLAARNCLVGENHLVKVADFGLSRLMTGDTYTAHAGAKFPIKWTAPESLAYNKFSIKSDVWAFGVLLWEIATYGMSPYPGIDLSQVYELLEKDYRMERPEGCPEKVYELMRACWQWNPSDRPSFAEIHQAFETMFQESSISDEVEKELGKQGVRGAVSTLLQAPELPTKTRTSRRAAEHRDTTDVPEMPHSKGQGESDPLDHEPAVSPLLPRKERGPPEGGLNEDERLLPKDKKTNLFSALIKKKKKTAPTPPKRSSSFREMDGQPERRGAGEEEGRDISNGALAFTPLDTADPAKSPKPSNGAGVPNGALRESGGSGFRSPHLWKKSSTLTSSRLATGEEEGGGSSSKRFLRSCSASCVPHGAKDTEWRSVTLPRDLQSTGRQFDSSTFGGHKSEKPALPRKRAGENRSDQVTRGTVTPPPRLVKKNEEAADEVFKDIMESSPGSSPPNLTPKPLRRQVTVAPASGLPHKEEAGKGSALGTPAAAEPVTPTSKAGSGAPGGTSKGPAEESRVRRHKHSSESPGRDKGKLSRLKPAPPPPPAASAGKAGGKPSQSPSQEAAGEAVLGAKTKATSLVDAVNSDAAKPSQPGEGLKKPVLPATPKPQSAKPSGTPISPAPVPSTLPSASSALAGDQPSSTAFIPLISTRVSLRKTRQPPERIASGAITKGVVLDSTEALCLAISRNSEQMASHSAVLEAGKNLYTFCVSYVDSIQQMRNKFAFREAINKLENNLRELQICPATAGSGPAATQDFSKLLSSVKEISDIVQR
T2 sequence (P98170 252-356): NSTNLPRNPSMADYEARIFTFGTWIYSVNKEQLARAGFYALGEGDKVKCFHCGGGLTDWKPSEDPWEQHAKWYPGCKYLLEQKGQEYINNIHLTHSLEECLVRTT
T1 sequence (Q13490 250-350): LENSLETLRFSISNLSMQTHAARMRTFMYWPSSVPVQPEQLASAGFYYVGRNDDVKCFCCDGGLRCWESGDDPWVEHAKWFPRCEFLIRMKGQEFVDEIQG

Structure (SMILES)	IC50 [1] [nM]	IC50 [2] [nM]	suppression of K562 cell growth (comparison) [3]	IC50 [3] [nM]	IC50 [4] [nM]	BCR-ABL, cIAP1 and XIAP protein levels [5]	knockdown activity against the BCR-ABL protein ([5]; 1-300 nM)
CN[C@@H](C)C(=O)N[C@H](C(=O)N1CCC[C@H]1c1nc(C(=O)c2cccc(OCCOCCOCCOCC(=O)N3CCN(c4cc(Nc5ncc(C(=O)Nc6c(C)cccc6Cl)s5)nc(C)n4)CC3)c2)cs1)C1CCCCC1 [DAS-IAP]	10	50	more potent suppression of K562 cell growth than DAS-VHL	8.6	8.97 ± 0.99	reduced	effective knockdown activity
CN[C@@H](C)C(=O)N(C)[C@H](C(=O)N1CCC[C@H]1c1nc(C(=O)c2cccc(OCCOCCOCCOCC(=O)N3CCN(c4cc(Nc5ncc(C(=O)Nc6c(C)cccc6Cl)s5)nc(C)n4)CC3)c2)cs1)C1CCCCC1 [DAS-meIAP]	> 1000	> 1000		3.93	3.57 ± 0.22	did not reduce	

Reference: article PMC6131351, “Pharmacological difference between degrader and inhibitor against oncogenic BCR-ABL kinase” (Scientific Reports, 2018)
